Source: patent US10538802B2, “Polypeptide substrate for the detection of von Williebrand factor cleaving protease ADAMTS13” (IMMUCOR GTI DIAGNOSTICS, INC., priority 2011, dated 2020)
No end group written: not given here.

Columns and labels:
[1] = Solubility of the SEQ ID NO: 7 polypeptide substrate (working solution centrifuged, pellet observed); type: physicochemical
Procedure: 250 .micro.L of working solution is prepared as above. The solution is vortexed vigorously and appears to be in solution. The solution is centrifuged at ˜12,000 g for about 2 minutes. After centrifugation, a very small pink pellet is noted at the bottom of the tube. […] Another tube is prepared as above substituting water for the substrate buffer. This tube is also centrifuged. Once again a pink pellet is observed in the bottom of the tube. The pellet observed in the water solution is noticeably larger than the pellet observed in the substrate buffer solution.

ADAMTS13 = biological target: T1, ADAMTS13 (Homo sapiens, UniProt Q76LX8); assay: ADAMTS13 activity assay with fluorogenic (FRET) polypeptide substrate and diluted plasma samples; type: biochemical; details: for Assigned/Expected % Normal ADAMTS13 Activity Values Based on FRETS-VWF73 Substrate: incubation 30 Minutes
T1 construct: tissue Gen-Probe GTI Diagnostics (ATS-13 kit calibrators, controls and proficiency samples); George King Biomedical Inc. (FACT, A-FACT, B-FACT plasmas) ATS-13; host or cells: plasma
T1 sequence (Q76LX8 75-1427): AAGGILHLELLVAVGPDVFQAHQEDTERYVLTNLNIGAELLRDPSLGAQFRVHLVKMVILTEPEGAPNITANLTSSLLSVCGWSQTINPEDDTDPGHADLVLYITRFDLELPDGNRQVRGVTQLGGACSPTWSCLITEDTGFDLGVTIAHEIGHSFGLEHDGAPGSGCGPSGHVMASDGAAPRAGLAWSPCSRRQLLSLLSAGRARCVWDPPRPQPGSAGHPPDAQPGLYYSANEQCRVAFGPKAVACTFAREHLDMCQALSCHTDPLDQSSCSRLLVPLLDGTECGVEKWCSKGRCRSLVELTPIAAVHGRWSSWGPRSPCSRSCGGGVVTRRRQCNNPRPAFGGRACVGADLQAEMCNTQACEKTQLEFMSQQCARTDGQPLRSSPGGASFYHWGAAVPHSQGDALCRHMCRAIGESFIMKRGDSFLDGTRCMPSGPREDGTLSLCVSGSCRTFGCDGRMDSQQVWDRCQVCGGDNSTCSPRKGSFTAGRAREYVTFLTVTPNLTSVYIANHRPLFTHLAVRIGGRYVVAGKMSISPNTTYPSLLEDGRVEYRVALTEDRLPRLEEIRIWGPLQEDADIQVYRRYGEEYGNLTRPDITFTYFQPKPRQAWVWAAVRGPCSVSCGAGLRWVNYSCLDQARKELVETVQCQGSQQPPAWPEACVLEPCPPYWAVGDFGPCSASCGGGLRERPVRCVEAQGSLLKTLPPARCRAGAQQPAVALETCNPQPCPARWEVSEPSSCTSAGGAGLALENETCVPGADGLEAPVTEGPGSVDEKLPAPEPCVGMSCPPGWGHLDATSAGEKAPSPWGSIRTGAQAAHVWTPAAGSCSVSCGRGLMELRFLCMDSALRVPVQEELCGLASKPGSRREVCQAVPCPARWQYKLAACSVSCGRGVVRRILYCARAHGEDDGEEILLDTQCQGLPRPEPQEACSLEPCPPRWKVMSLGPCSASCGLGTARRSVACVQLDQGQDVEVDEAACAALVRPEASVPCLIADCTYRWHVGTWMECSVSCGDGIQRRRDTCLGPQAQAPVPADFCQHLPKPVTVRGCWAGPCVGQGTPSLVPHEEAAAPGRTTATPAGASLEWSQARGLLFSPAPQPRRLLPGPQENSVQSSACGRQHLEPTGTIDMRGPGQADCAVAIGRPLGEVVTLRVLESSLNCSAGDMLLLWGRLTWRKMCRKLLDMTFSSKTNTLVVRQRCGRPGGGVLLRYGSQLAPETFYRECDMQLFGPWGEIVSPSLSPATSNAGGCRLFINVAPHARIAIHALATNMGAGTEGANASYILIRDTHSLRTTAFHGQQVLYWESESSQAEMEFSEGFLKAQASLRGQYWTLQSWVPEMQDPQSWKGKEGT
Procedure: The procedure in this example was performed substantially as described in Kokame, K., Y. Nobe, Y. Kokubo, A. Okayama, and T. Miyata. 2005. FRETS-VWF73, a first fluorogenic substrate for ADAMTS13 assay. Br. J. Haematol. 129:93-100, but using SEQ ID NO: 1 in place of the 73 amino acid substrate described therein. The FRETS-VWF73 substrate solution was dissolved in 25% dimethyl sulphoxide/water to prepare the 100 microM stock solution. The GTI FRET4 SEQ ID NO: 1 was dissolved in 100% DMSO. Both substrates were diluted to equal concentrations using ATS-13 substrate buffer (Gen-Probe GT1 Diagnostics, Inc., U.S.A., Cat#ATS-13).
Plasma samples were diluted according to the ATS-13 Direction Insert using ATS-13 specimen diluent (Gen-Probe GTI Diagnostics, Inc., U.S.A., Cat# ATS-13). The diluted plasma samples were mixed with the diluted substrate and the fluorescence was read at 0, 5, 10, 15, 20, 30, 45 minutes using a Biotek FLX800 at the appropriate excitation and emission wavelengths for each substrate.
The fluorophore-quencher pair in the SEQ ID NO: 1 polypeptide substrate is FAM-5/TQ 2^Tm (Ex 485±20; Em 528±20; AAT Bioquest, Inc. Sunnyvale, Calif. U.S.A.). The fluorophore and quencher pair of FRETS-VWF73 (Nma/Dnp) described in Kokame has been substituted with FAM-5 and TQ_2 respectively in GTI_FRET4 SEQ ID NO: 1. Furthermore, in the SEQ ID NO: 1 polypeptide the position of the fluorophore (FAM-5) and quencher (TQ_2) has been swapped relative to the position of the fluorophore and quencher of the FRETS-VWF73 construct. Therefore, for GTI_FRET4 SEQ ID NO: 1, attachment of the fluorophore (FAM-5) occurs by substituting asparagine with cystine at position 15. The quencher (TQ_2) was attached by substituting glutamine with lysine at position 4 (FIG. 2 and Table 4).
For this experiment, substrate concentration and fluorescence reader settings determined on the previous experiment are used. The specimens tested (listed in Table 3), include a panel of proficiency samples prepared for use with ATS-13 (Gen-Probe GTI Diagnostics, Inc., U.S.A., Cat# ATS-13) which included samples with normal or deficient ADAMTS13 activity levels. In addition, six Factor Assay ConTrol plasma were used (2 FACT, 2 A-FACT and 2 B-FACT, from George King Biomedical Inc., Kansas, USA). The assays for the SEQ ID NO: 1 substrate and for the prior art FRETS-VWF73 assay were performed generally as according to the procedure described in Example 1. Substrate is prepared according to the conditions used for initial testing of the substrate, which prepared the molar amount of SEQ ID NO: 1 polypeptide substrate used in the assay to be equivalent to the molar amount of FRETS-VWF73 used in the prior art. The […] assays were read at 0, 5, 10, 15, 20, 30, 45 minutes.
Testing of substrate for cleavability by ADAMTS13 is determined as is generally described in Example 1. […]

| solubility in water compared with substrate buffer ([1]; pellet size after centrifugation) | solubility in the working solution as prepared ([1]; substrate buffer, centrifuged ~12,000 g about 2 minutes) | reaction time in the ADAMTS13 assay (ADAMTS13) | trend line of the calibration curve (ADAMTS13) | difference between Calibrator A and E, dynamic range (ADAMTS13; Example 2, at 30 minutes) | Assigned/Expected % Normal ADAMTS13 Activity Values Based on FRETS-VWF73 Substrate (ADAMTS13; sample Calibrator A) | Assigned/Expected % Normal ADAMTS13 Activity Values Based on FRETS-VWF73 Substrate (ADAMTS13; sample Calibrator B) | Assigned/Expected % Normal ADAMTS13 Activity Values Based on FRETS-VWF73 Substrate (ADAMTS13; sample Calibrator C) | Assigned/Expected % Normal ADAMTS13 Activity Values Based on FRETS-VWF73 Substrate (ADAMTS13; sample Calibrator D) | Assigned/Expected % Normal ADAMTS13 Activity Values Based on FRETS-VWF73 Substrate (ADAMTS13; sample Calibrator E) | Assigned/Expected % Normal ADAMTS13 Activity Values Based on FRETS-VWF73 Substrate (ADAMTS13; sample MON110707) | Assigned/Expected % Normal ADAMTS13 Activity Values Based on FRETS-VWF73 Substrate (ADAMTS13; sample Positive Control High) | Assigned/Expected % Normal ADAMTS13 Activity Values Based on FRETS-VWF73 Substrate (ADAMTS13; sample Positive Control Low) | Assigned/Expected % Normal ADAMTS13 Activity Values Based on FRETS-VWF73 Substrate (ADAMTS13; sample UAMS041609) | Assigned/Expected % Normal ADAMTS13 Activity Values Based on FRETS-VWF73 Substrate (ADAMTS13; sample VF) | Sequence |
| --- | --- | --- | --- | --- | --- | --- | --- | --- | --- | --- | --- | --- | --- | --- | --- |
| less soluble in water than in the buffer | not completely soluble |  |  |  |  |  |  |  |  |  |  |  |  |  | DREKAPNLVYMVTGCPASDEIKRLPGDIIGWPNAPILIQDFETLPREAPDLVLQR [GTI_FRET5] |
|  |  | 30 min | polynomial | 2500 RFU | 0 % Normal | 9 % Normal | 34 % Normal | 55 % Normal | 102 % Normal | ~90-100 % Normal | 36-54 % Normal | 6-17 % Normal | ~35 % Normal | ~20 % Normal | DREQAPNLVYMVTGNPASDEIKRLPGDIQVVPIGVGPNANVOELERIGWPNAPILIQDFLTLPREAPDLVLQR [FRETS-VWF73, reference compound] |
